These results are taken from PMC10836395, “Investigation of how gate residues in the main channel affect the catalytic activity of Scytalidium thermophilum catalase” (Acta Crystallographica. Section D, Structural Biology, 2024).

The target of test [1] is T1, T188F (Mycothermus thermophilus, UniProt M4GGR5, T207F).
T1 construct: recombinant, pET-28-TEV-CATPO; contains heme b; Rz 0.8
T1 sequence (M4GGR5 20-717 T207F): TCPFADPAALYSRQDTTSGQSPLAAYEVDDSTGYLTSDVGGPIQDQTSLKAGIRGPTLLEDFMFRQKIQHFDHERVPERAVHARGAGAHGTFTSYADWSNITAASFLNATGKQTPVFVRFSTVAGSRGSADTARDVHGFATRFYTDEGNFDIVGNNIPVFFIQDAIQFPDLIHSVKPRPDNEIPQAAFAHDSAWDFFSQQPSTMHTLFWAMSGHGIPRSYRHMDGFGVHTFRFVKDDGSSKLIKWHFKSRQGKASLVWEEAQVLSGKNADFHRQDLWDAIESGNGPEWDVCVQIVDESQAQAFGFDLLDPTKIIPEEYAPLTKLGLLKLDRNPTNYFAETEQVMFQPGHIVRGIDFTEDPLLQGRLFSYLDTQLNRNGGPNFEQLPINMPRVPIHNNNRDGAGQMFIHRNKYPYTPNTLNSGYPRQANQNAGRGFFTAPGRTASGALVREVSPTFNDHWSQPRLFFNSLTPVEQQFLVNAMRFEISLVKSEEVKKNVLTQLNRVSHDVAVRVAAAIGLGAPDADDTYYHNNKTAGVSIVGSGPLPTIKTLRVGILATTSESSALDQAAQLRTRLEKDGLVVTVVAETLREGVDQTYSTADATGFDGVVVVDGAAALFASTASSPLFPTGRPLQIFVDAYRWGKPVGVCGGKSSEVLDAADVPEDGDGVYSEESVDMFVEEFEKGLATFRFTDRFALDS
The test can be described thus: Spectrophotometric phenol oxidase assay without H2O2 at pH 7.0 and 60 °C, initial rates fitted to the Michaelis-Menten equation. The format is biochemical. The following applies: read-out: Phenol oxidase K m; n = 3. Here is the method: (§1) All inhibition assays were performed in triplicate.

For test [2], the target named is T2, T188D (Mycothermus thermophilus, UniProt M4GGR5, T207D).
T2 construct: recombinant, pET-28-TEV-CATPO; contains heme b; Rz 0.5
T2 sequence (M4GGR5 20-717 T207D): T1 sequence (M4GGR5 20-717 T207F) with F188D
The test is described as above. The format is biochemical. Conditions: read-out: Phenol oxidase K m; n = 3. Here is the method:
as §1

In test [3] the target is T3, T188I (Mycothermus thermophilus, UniProt M4GGR5, T207I).
T3 construct: recombinant, pET-28-TEV-CATPO; contains heme b; Rz 0.4
T3 sequence (M4GGR5 20-717 T207I): T1 sequence (M4GGR5 20-717 T207F) with F188I
Described as above. The format is biochemical. The following applies: read-out: Phenol oxidase K m; n = 3. Here is the method: as §1

Test [4] has as its target CATPO (Scytalidium thermophilum (Humicola insolens), UniProt M4GGR5). Nature of the test: Inhibition of catechol oxidation. Conditions: catechol oxidation by CATPO; catechol 1 to 100 mM; read-out: K i. The class given is biochemical.
Test [5] deals with CATPO T188A variant (Scytalidium thermophilum (Humicola insolens), UniProt M4GGR5, T207A). Nature of the test: biochemical.

Positions count from the first letter of the chain named.

CATPO T188A variant, sequence (M4GGR5 entry or part of it T207A): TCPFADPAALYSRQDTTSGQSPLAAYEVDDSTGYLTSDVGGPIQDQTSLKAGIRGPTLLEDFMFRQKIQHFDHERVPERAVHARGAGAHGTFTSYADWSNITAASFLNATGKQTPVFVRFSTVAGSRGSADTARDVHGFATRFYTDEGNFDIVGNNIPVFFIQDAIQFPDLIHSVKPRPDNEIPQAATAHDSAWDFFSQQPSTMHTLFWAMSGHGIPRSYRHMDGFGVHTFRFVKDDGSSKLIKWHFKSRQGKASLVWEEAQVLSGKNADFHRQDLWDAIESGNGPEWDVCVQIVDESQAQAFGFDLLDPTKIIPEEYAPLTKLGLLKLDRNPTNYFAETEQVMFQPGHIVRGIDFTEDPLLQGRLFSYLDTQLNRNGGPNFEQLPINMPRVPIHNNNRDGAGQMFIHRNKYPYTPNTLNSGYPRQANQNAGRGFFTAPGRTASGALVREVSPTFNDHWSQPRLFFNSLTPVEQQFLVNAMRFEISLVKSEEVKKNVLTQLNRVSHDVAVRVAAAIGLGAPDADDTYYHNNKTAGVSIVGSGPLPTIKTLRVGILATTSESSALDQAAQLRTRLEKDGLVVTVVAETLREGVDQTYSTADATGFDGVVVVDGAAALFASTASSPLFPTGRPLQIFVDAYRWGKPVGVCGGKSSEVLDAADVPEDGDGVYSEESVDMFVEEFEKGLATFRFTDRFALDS
CATPO, sequence (M4GGR5 entry or part of it): as the sequence (M4GGR5 entry or part of it T207A) above

On to `Oc1cccc(O)c1O` [Pyrogallol, pyrogallol], for which the K m in test [1] came to 37 ± 0.5 mM; in test [2], 41 ± 1 mM; in test [3], 38 ± 0.5 mM. In addition, the Ki in test [4] worked out at 4.2 ± 0.8 mM; in test [5], 4.1 ± 0.8 mM.
